{"source": "patent US10058538B2", "about": "“Compositions comprising substituted benzofuroquinolizine and α2-adrenergic agonists” (VETCARE OY, priority 2014, dated 2018)", "key": {"beagle dogs": {"system": "beagle dogs", "test": "Composite sedation score (0-20) in dogs, medetomidine with or without MK-467 IM, reversal with atipamezole (Example 2)", "type": "in vivo, dog", "conditions": "FIG. 3", "description": "Atipamezole (100 μg/kg IM) was administered at 30 min (arrow).\nThe study was designed as a prospective, randomized, experimental cross-over study.\nEach dog (n=7) was treated twice with a 14-days washout period: • Medetomidine (20 μg/kg) at 0 min, followed by Atipamezole (100 μg/kg) at 30 min • Medetomidine (20 μg/kg)+MK-467 (400 μg/kg) at 0 min, followed by Atipamezole (100 μg/kg) at 30 min\nMedetomidine and MK-467 were mixed in the same syringe and administered intramuscularly.\nSedation was scored by a veterinarian blinded for treatment with the following score:\nComposite Sedation Score (0-20)\n• 0 Standing • 1 Standing but staggers • 2 Sternal head up • 3 Sternal head down • 4 Lateral head down 2. […] Position of the Eye (0-2) • 0 Middle • 2 Turned down 4. Jaw and Tongue Relaxation (0-4) • 0 Normal, opens the jaws but resists manipulation of the tongue • 1 Bites jaws together • 2 Opens the jaws but strong resistance when tongue is pulled • 3 Slight resistance when tongue is pulled • 4 No resistance 5. Resistance to Positioning in Lateral Recumbency (0-3) • 0 Normal • 1 Turns back to sternal position • 2 Some resistance but stays in lateral recumbency • 3 No resistance or the position is already lateral 6. […]"}, "[1]": {"conditions": "by reduction in heart rate and cardiac output after medetomidine administration; cited from earlier work"}, "dogs [2]": {"system": "dogs", "conditions": "medetomidine 20 μg/kg IM or 10 μg/kg IV, compared with baseline values; cited from earlier work"}, "dogs [3]": {"system": "dogs", "conditions": "dexmedetomidine 10 μg/kg IV, MK-467 250, 500 and 750 μg/kg, especially with higher doses; cited from earlier work"}}, "data": [{"smiles": "Cc1cccc(C(C)c2cnc[nH]2)c1C", "note": "(racemic) [medetomidine, (RS)-4-[1-(2,3-dimethylphenyl)ethyl]-3H-imidazole]", "values": [{"measurement": "resedation after atipamezole reversal", "setting": "beagle dogs; medetomidine 20 μg/kg IM alone or with MK-467 400 μg/kg in the same syringe, atipamezole 100 μg/kg IM at 30 min", "result": "resedation seen"}, {"measurement": "decrease of global Do2 (oxygen delivery)", "setting": "[1]", "result": "at least 50%"}, {"measurement": "heart rate (HR), mixed-venous partial pressure of oxygen (Pvo(2)) and cardiac index (CI)", "setting": "dogs [2]", "result": "significantly lower"}, {"measurement": "mean arterial blood pressure (MAP), systemic vascular resistance (SVR) and oxygen extraction ratio (ER)", "setting": "dogs [2]", "result": "significantly higher"}]}, {"smiles": "CCC1(c2cnc[nH]2)Cc2ccccc2C1", "note": "[atipamezole]", "values": [{"measurement": "reversal of medetomidine induced sedation", "setting": "beagle dogs; atipamezole 100 μg/kg IM at 30 min after medetomidine 20 μg/kg IM alone or with MK-467 400 μg/kg", "result": "reversed"}]}, {"smiles": "Cc1cccc([C@H](C)c2c[nH]cn2)c1C", "note": "[dexmedetomidine, (S)-4-[1-(2,3-Dimethylphenyl)ethyl]-3H-imidazole]", "values": [{"measurement": "BIS-values (bispectral index)", "setting": "dogs [3]", "result": "decreased"}]}]}
